The source of these data is patent publication US20240216354A1, “IMMUNOMODULATORY IMIDE DRUGS AS ZETA-CHAIN-ASSOCIATED PROTEIN KINASE 70 (ZAP70) AGONISTS AND USES THEREOF” (Dana-Farber Cancer Institute, Inc., priority 2019, published 2024).

One data set concerns U266 cells. Nature of the data set: KHYG-1 NK cell cytotoxicity against calcein-AM-labeled U266 cells. The class given is cell-based. As to conditions: KHYG-1 cells, pomalidomide 0.25-1 μM 24 h, then 4 h with U266 at indicated E/T ratios. The procedure:
KHYG-1 cells were cultured with pomalidomide (0.25-1 μM) for 24 h. (A) Whole cell lysates were subjected to immunoblotting using indicated Abs. (B) KHYG-1 cells were incubated with calcein-AM-stained U266 cells for 4 h at the indicated effector/target (E/T) ratios. Percent specific lysis was calculated as described previously. (C) KHYG-1 cells were transfected with Scsi or Zap-70si, and then cultured with pomalidomide (0.25 μM) for 72 h in the absence of IL-2. Viable cell number was determined, and cells were then incubated with calcein AM-labeled U266 target cells for 4 h at indicated effector/target (E/T) ratios. Percent specific lysis was calculated as described previously. […] Cell growth was assessed by MTT assay. […] Percent specific lysis was calculated as previously described.
(A) KHYG-1 cells were transfected with Scsi or CRBNsi. […] Cells were counted and incubated with calcein AM-labeled U266 for 4 h at indicated effector/target (E/T) ratios.
(A, B) KHYG-1 cells were transfected with scrambled (Sc) or Zap-70 siRNAs, and then cultured for 72 h with lenalidomide (0.5 μM), in the absence of IL-2 (A) The viable cell number was measured by trypan-blue dye exclusion. […] Percent specific lysis was calculated as described previously. *: p<0.01 compared with Scsi.
KHYG-1 cells were transfected with scrambled (Sc) or IKZF3 siRNAs. […] Percent specific lysis was calculated as previously described. […]

The subject of the next data set is primary NK cells. Nature of the data set: Primary NK cell viable cell number by trypan-blue dye exclusion. Type of data set: cell-based, human. To be noted: primary NK cells #1, #2, pomalidomide 0-0.5 μM, 24 h. The procedure: Isolated primary NK cells from two healthy volunteers were cultured for 24 h with pomalidomide (0-0.5 μM). Viable cell number was measured by trypan-blue dye exclusion.

Another data set has as its target T1, Zap-70 (Homo sapiens, UniProt P43403).
T1 sequence (P43403 1-619): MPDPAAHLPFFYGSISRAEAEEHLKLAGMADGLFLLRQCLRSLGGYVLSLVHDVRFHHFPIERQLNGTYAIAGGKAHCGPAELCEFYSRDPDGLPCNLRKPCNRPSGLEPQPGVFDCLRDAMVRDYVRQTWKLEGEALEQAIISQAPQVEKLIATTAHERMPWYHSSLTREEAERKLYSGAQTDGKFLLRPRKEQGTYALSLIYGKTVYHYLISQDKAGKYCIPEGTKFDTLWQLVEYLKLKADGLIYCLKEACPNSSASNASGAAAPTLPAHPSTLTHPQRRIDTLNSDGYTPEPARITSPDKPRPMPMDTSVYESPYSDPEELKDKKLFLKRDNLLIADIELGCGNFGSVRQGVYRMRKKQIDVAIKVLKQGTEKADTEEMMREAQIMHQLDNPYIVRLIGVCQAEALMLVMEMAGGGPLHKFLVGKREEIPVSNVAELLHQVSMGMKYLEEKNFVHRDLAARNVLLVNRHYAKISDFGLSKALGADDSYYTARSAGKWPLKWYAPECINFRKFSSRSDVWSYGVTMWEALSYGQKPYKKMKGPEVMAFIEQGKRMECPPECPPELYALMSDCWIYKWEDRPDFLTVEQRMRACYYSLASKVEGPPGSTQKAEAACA
In words: Pomalidomide-beads pull-down from Jurkat whole cell lysates. The class given is binding. On the set-up: purchased Origene, Rockville, MD. As to conditions: competitor 1 mM free pomalidomide, 1 h. The procedure:
(A) Jurkat cells were transfected with scrambled (Sc) siRNA or Zap-70 siRNA. Whole cell lysates were subjected to immunoblotting using indicated Abs. (B) Jurkat cells were treated with lenalidomide ([…]) or pomalidomide (1 and 3 μM) for 4 h and 8 h. Whole cell lysates were subjected to p-Zap ELISA assay. (C) Jurkat whole cell lysates were incubated with pomalidomide-beads in the presence or absence of competitor (1 mM free pomalidomide) for 1 h. After elution, samples were subjected to immunoblotting using anti-Zap-70 Ab. (D) Saturation-transfer difference resulting from the binding of pomalidomide to Zap-70. Pomalidomide is at 320 μM and Zap-70 is approximately 2 μM in deuterated PBS solution. […] (E) Saturation-transfer difference resulting from the binding of pomalidomide to Zap-70 in the presence of 2.56 mMATP. Pomalidomide is at 320 μM and Zap-70 is approximately 2 μM in deuterated PBS solution. […] Note that both ATP and pomalidomide show binding the Zap-70. (F) Non-cell based Zap-70 kinase assay was carried out, according to manufacturer's protocol.

With `Nc1cccc2c1C(=O)N(C1CCC(=O)NC1=O)C2=O` (stereo not drawn) [pomalidomide], the “cytotoxicity against U266 cells (percent specific lysis)” value in the data set with U266 cells is on record as “increased their cytotoxicity against U266 cells in a dose-dependent fashion”. The “NK cell growth (viable cell number)” value with primary NK cells was “without significantly effecting NK cell growth”. In addition, the “competition of Zap-70 pull-down by Pom-beads” value on Zap-70 is reported as “inhibited by free pomalidomide”.
